This note sets out measurements from patent publication US6762188B1, “Pharmaceutically active benzoquinazoline compounds” (SmithKline Beecham Corporation, priority 1990, dated 2004).

The test system of data set [1] is MCF-7 human breast adenocarcinoma. Put plainly: Tumor cell culture cytotoxicity (MTT dye reduction), MCF-7. It counts as cell-based. For orientation: Tetrazolium assays rely on reduction of a dye to a coloured formazan, in cell work by metabolically active cells.
Experimental: (§1) SW480 and WiDr colon adenocarcinomas, MCF-7 breast adenocarcinoma, A427 lung carcinoma and MOLT-4 T-cell leukemia were used for the primary screening of compounds. […] MCF-7, A427 and SW480 were grown in the above medium further supplemented with sodium pyruvate.
(§2) Cells are seeded into 96-well plates using a Perkin-Elmer Pro/pette. SW480 and A427 were seeded at 8,000 cells per well, MCF-7 at 10,000, Widr at 7500, and MOLT-4 at 12,500 cells per well, all in 150 µl of medium. Prior to the addition of drugs, cultures were incubated for 24 hrs at 37°. Compounds were added at 2×concentration in 150 l of medium and each concentration was assayed in triplicate. If DMSO or ethanol were used to solubilize compounds, appropriate controls were run if the concentration exceeded 0.01%. Cultures were incubated for 72 hours (96 hours for SW480 and MCF-7) in a 37° humidified incubator at 5% CO2. Inhibition of cell growth was measured using the MTT dye reduction assay.
(§3) Cell dilutions for a standard curve were prepared from a 72 hour log-phase culture. Serial dilutions were seeded in triplicate in 96-well plates and incubated at 37 degrees for one hour. MTT (3-(4,5-dimethylthiazol-2-yl)-2,5-diphenyltetrazolium bromide) was dissolved in PBS at 5 mg/ml and sonicated for 30 seconds. Using the Perkin Elmer Pro/pette, 200 μl of medium was removed and 100 μl of MTT added to the wells of the standard curve and test plates. Suspension cultures were spun for 5 min at 1000 rpm before removing medium from the wells. Plates were incubated for 1 hour at 370 on a platform shaker. Following this incubation 100 ml of medium was removed from the wells and 100 μl of DMSO added to each well. The plates were sonicated for approximately 10 seconds to solubilize the precipitated formazan dye. The absorbance of each well was measured using a Titertek Multiscan MC microtiter plate reader at 570 nm with a reference wavelength of 750 nm. Data was collected using a Mariachi Seed-2 and stored and analyzed using an IBM-AT and Lotus 1-2-3 software.
For data set [2], the system named is SW480 human colon adenocarcinoma. In words: Tumor cell culture cytotoxicity (MTT dye reduction), SW480. As to conditions: Homo sapiens.
Experimental: as §1, §2, §3
Data set [3] addresses T1, Mammalian Thymidylate Synthase (Homo sapiens, UniProt P04818).
T1 construct: made in house; host or cells: Escherichia coli
In words: Thymidylate synthase inhibition, tritium release assay. It counts as biochemical.

Where [4] appears, read: MCF7, Table F, fully aromatic p-aminobenzoylglutamates, read-out: Cell Culture Cytotoxicity CCCT MCF-7.
[5] abbreviates: SW480, read-out: Cell Culture Cytotoxicity CCCT SW-480, Table F, fully aromatic p-aminobenzoylglutamates.

Structures are written as SMILES. Like-named read-outs stand apart in the source and are kept apart here. A value given as a limit tells only on which side of the number the result lay.

For orientation: melting point means the temperature, or range, at which the solid turns liquid.

T1 sequence (P04818 whole entry): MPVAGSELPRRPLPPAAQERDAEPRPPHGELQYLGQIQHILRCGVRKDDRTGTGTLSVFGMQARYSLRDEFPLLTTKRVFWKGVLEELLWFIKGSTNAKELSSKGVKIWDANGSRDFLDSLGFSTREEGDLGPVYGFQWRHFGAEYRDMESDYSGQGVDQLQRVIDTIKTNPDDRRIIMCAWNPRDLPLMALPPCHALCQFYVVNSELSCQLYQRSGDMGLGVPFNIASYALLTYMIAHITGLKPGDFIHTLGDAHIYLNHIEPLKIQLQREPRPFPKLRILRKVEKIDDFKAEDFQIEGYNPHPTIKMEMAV

In the case of `CC(=O)c1ccc(NCc2ccc3ccc4nc(N)[nH]c(=O)c4c3c2)cc1` [3-Amino-9-((4-acetylanilino)methyl)benzo(f)quinazolin-1(2H)-one], the IC50 is 30 nM in data set [1] (MCF7, Table B, fully aromatic 3-amino derivatives, read-out: Tumor Cell Culture Cytotoxicity IC50 Other (MCF-7)); 45 nM in data set [2] (SW480, read-out: Tumor Cell Culture Cytotoxicity IC50 SW480, Table B, fully aromatic 3-amino derivatives); under 1000 nM in data set [3].

Compound `Nc1nc2ccc3cc(S(=O)(=O)Nc4ccc(C(=O)N[C@@H](CCC(=O)O)C(=O)O)cc4)c(Br)cc3c2c(=O)[nH]1` [N-(4-((3-Amino-9-bromo-1,2-dihydro-1-oxobenzo(f)quinazolin-8-yl)sulfonamido)benzoyl)-L-glutamic acid] had a melting point of 238 to 242 °C. Besides, the IC50 in data set [1] (setting [4]) is over 50000 nM. For the same compound, in data set [2] (setting [5]), the IC50 was over 50000 nM.

Regarding `Cc1nc2ccc3ccc(CNc4ccc(C(=O)N[C@@H](CCC(=O)O)C(=O)O)cc4)cc3c2c(=O)[nH]1` [N-(4-(((1,2-Dihydro-3-methyl-1-oxobenzo(f)quinazolin-9-yl)methyl)amino)benzoyl)-L-glutamic acid], the IC50 is 7.5 nM in data set [1] (setting [4]) and 350 nM in data set [2] (setting [5]).

With `Nc1nc2ccc3ccc(CNc4ccc(C(=O)N[C@@H](CCC(=O)O)C(=O)O)cc4)cc3c2c(=O)[nH]1` [N-(4-(((3-Amino-1,2-dihydro-1-oxobenzo(f)quinazolin-9-yl)methyl)amino)benzoyl)-L-glutamic acid], the IC50 in data set [1] (setting [4]) amounted to 25 nM; in data set [2] (setting [5]), 600 nM.
